Experimental data taken from US6635293B2, “Finely dispersed carotenoid suspensions for use in foods and a process for their preparation” (Kemin Foods, L.C., priority 2001, dated 2003).

Assays:
[1] = Optical clarity of model beverage system containing SFAE/carotenoid composition (% transmittance at 800 nm); type: physicochemical; details: liquid conc. product 20% L-1695 ester
Experimental: (§1) Optical clarity was examined using SFAE/carotenoid liquid compositions in potable water and a model beverage system. The SFAE/carotenoid dry composition are used in a model beverage system. Liquid SFAE/carotenoid compositions were made by slowly mixing the appropriate weight percent of SFAE into the water until dissolved (Tables 2-5). At this point, the carotenoid was mixed into the SFAE/water mixture until evenly dispersed. The dry SFAE/lutein composition was prepared by removing the water from the liquid SFAE/lutein composition using a horizontal wiped film evaporator until the total moisture was less than 1%. These SFAE/carotenoid compositions were added either to potable water or to the model beverage system. The optical clarity was measured using a Hewlett Packard UV-Visible Spectrophotometer Model 8453. The instrument was blanked with water for the water trial and control beverage for the beverage trials. A quartz cuvette having a 1 cm path length is rinsed three times with the sample and then the transmittance at 800 nm is read from the spectrophotometer.

[2] = system: age-related macular degeneration; details: consumption of lutein and zeaxanthin together; cited from earlier work
[3] = Optical clarity of water containing SFAE/carotenoid composition (% transmittance at 800 nm); type: physicochemical; details: liquid conc. product 20% L-1695 ester
Experimental: as §1

[4] = Stability against ringing and settling of SFAE/carotenoid compositions in model beverage system; type: physicochemical; details: 3 mg carotenoid/8 fl. oz. serving, 20% SFAE/1% lycopene
Text: The objective of this experiment was to determine the stability of a sucrose fatty acid ester/carotenoid suspension in aqueous compositions. For the purposes of this discussion, stability will be defined as the resistance to produce a deposit of the carotenoid around the perimeter of the container in the region of the surface of the beverage (ringing). There are several factors that may affect the stability against ringing in aqueous compositions. It is possible that an optimal level of SFAE is required to keep the carotenoid in the suspension. The hydrophilic/lipophilic balance (HLB) of the SFAE may affect the interaction of the carotenoids with the aqueous composition. Additionally, the inclusion level of the SFAE/carotenoid suspension may determine the stability against ringing. […] These factors have been examined to determine whether there are optimal levels of SFAE and carotenoids that contribute to the stability against ringing. Stability against ringing was examined using SFAE/carotenoid liquid compositions in potable water and a model beverage system. The SFAE/carotenoid dry composition was used in a model beverage system. Liquid SFAE/carotenoid compositions were made by slowly mixing the appropriate weight percent of SFAE into the water until dissolved (Table 6). At this point the carotenoid was mixed into the SFAE/water mixture until evenly dispersed. […]

[5] = 0.5 mg carotenoid/8 oz serving, 5% carotenoid
[6] = 3.0 mg carotenoid/8 oz serving, 5% carotenoid
[7] = 1.5 mg carotenoid/8 oz serving, 5% carotenoid
[8] = 0.5 mg carotenoid/8 oz serving, 1% carotenoid
[9] = 3.0 mg carotenoid/8 oz serving, 1% carotenoid

Structure (SMILES) | Optical Clarity [1, 5] [% transmittance at 800 nm] | Optical Clarity [1, 6] [% transmittance at 800 nm] | reduction in age-related macular degeneration [2] [%] | Optical Clarity [3, 5] [% transmittance at 800 nm] | Optical Clarity [3, 7] [% transmittance at 800 nm] | Optical Clarity [3, 6] [% transmittance at 800 nm] | settling (in words) [4] | Optical Clarity [1, 8] [% transmittance at 800 nm] | Optical Clarity [1, 9] [% transmittance at 800 nm] | Optical Clarity [3, 8] [% transmittance at 800 nm] | Optical Clarity ([3]; 1.5 mg carotenoid/8 oz serving, 1% carotenoid) [% transmittance at 800 nm] | Optical Clarity [3, 9] [% transmittance at 800 nm]
CC1=C[C@H](O)CC(C)(C)[C@H]1/C=C/C(C)=C/C=C/C(C)=C/C=C/C=C(C)/C=C/C=C(C)/C=C/C1=C(C)C[C@@H](O)CC1(C)C [lutein, Lutein] | 97.609 | 83.017 | 57 | 104.73 | 101.01 | 93.735 |  |  |  |  |  | 
CC(C)=CCC/C(C)=C/C=C/C(C)=C/C=C/C(C)=C/C=C/C=C(C)/C=C/C=C(C)/C=C/C=C(\C)CCC=C(C)C [lycopene, Lycopene] |  |  |  |  |  |  | considerable amount of settling | 94.934 | 50.180 | 97.989 | 88.387 | 72.401
CC1=C(/C=C/C(C)=C/C=C/C(C)=C/C=C/C=C(C)/C=C/C=C(C)/C=C/C2=C(C)C[C@@H](O)CC2(C)C)C(C)(C)C[C@H](O)C1 [zeaxanthin, Zeaxanthin] | 99.102 | 87.707 | 57 | 98.213 | 95.692 | 94.110 |  |  |  |  |  | 
CC1=C(/C=C/C(C)=C/C=C/C(C)=C/C=C/C=C(C)/C=C/C=C(C)/C=C/C2=C(C)CCCC2(C)C)C(C)(C)CCC1 [β-carotene, β-Carotene] | 99.314 | 89.643 |  | 96.759 | 94.275 | 87.407 |  |  |  |  |  | 
